According to the OPERA property sets (Mansouri et al. 2018):

Settings: for log10 BCF / log10 biotransformation half-life (days): fish

| SMILES | boiling point | melting point | also measured |
| --- | --- | --- | --- |
| Cc1ccco1 | 65 °C | -87.5 °C | log10 vapour pressure (mmHg): 2.19 |
| COc1ccc(C(=O)NCc2cccnc2)cc1C(=O)NCc1cccnc1 |  | 124 °C |  |
| CC=C(C)C(C)C |  |  | log10 vapour pressure (mmHg): 1.83 |
| Cc1ccc2ccc3ccccc3c2c1 | 350 °C | 65 °C |  |
| CC(C)(C)CO | 114 °C | 52.5 °C | log10 vapour pressure (mmHg): 1.2 |
| Cc1ccc(O)c(-n2n3c4ccccc4n23)c1 |  |  | ready biodegradability: not readily biodegradable |
| CC[N+](CC)(CCOc1ccc(C(C)(C)CC(C)(C)C)cc1)Cc1ccccc1.[Cl-] |  | 113 °C |  |
| N#Cc1ccc(C#N)cc1 |  | 224 °C | ready biodegradability: not readily biodegradable; log10 BCF: 0.3; log10 biotransformation half-life (days): -0.81 |
| COC(=O)c1c(Cl)c(Cl)c(C(=O)OC)c(Cl)c1Cl | 365 °C | 155 °C | log10 Koc (L/kg): 3.7; log10 vapour pressure (mmHg): -5.6; ready biodegradability: not readily biodegradable |
| O=[N+]([O-])c1ccc2ncccc2c1 |  | 154 °C |  |
| O=C1C=CCCC1 | 170 °C | -53 °C |  |
| C1CSCCS1 | 200 °C | 112 °C | log10 vapour pressure (mmHg): -0.0969 |
| OCC1CC23CCC1(CC2)CC3CO (stereo unspecified) |  |  | ready biodegradability: not readily biodegradable |
| Fc1cccc2[nH]nnc12 |  |  | log10 Koc (L/kg): 1.87 |
| CCCOC(=O)c1ccc(N)cc1 |  | 75 °C |  |
| Cc1ccc(C(=O)c2ccccc2)cc1 |  | 59.5 °C |  |
| O=C(O)c1c(Cl)c(Cl)c(Cl)c(Cl)c1C(=O)O |  |  | log10 Koc (L/kg): 3.3 |
| OCc1cccc(CO)c1 |  | 57 °C |  |
| Brc1sc(Br)c(Br)c1Br | 326 °C | 118 °C |  |
| COc1ccccc1C=O | 244 °C | 37.5 °C |  |
| CCCCc1c(C)nc(NCC)nc1OS(=O)(=O)N(C)C |  | 50.5 °C | log10 vapour pressure (mmHg): -6.12 |

| SMILES | boiling point | melting point | also measured |
| --- | --- | --- | --- |
| Nc1cccc2c(N)cccc12 |  | 190 °C | ready biodegradability: not readily biodegradable; log10 BCF: 0.65; log10 biotransformation half-life (days): -0.52 |
| CCCCCCCC/C=C\CCCCCCCC(=O)OCCCC |  | -26.5 °C |  |
| CCCCCCCCCCOc1c(OC)cc(C(N)=O)cc1OC |  | 122 °C |  |
| CCCCCC(=O)OCC(COC(=O)CCCCC)OC(=O)CCCCC |  | -60 °C |  |
| Cc1cc(N)ccc1Cl | 241 °C | 83.5 °C | ready biodegradability: not readily biodegradable |
| CC(=O)Oc1ccc(C)cc1C | 226 °C |  |  |
| OCc1c[nH]c2ccccc12 |  | 97.5 °C |  |
| Cc1c(C(C)C)c(=O)n(-c2ccccc2)n1C |  | 103 °C |  |
| CC#C[C@]1(O)CC[C@H]2[C@@H]3C[C@H](C)C4=CC(=O)CC[C@]4(C)[C@H]3CC[C@@]21C |  | 102 °C |  |
| Nc1ccc(C(=O)O)cc1O |  | 213 °C |  |
| CCc1ccnc(C)c1 | 179 °C |  |  |
| CCOC(=O)/C=C1/SC(N2CCCCC2)C(=O)N1C (stereo unspecified) |  | 140 °C |  |
| COCCC#N | 163 °C |  |  |
| CC(C)(C)N(CCO)CCO |  | 42 °C |  |
| COc1ccc(CO)cc1 | 259 °C | 25 °C |  |
| OC[C@@H](O)[C@@H](O)CO | 330 °C | 122 °C |  |
| C[C@H]1CCC(=O)N1 | 248 °C | 43 °C |  |
| CN=C=S | 119 °C | 36 °C | log10 Koc (L/kg): 0.97; log10 vapour pressure (mmHg): 0.549; ready biodegradability: not readily biodegradable |
| CN1CCC(CCCC2CCN(C)CC2)CC1 |  | 13.7 °C |  |
| CC(C)C(C)C(C)(C)C (stereo unspecified) | 133 °C | -121 °C | log10 vapour pressure (mmHg): 1.1 |
| Cc1ccc2nc(C)[nH]c2c1 | 350 °C | 203 °C |  |

| SMILES | boiling point | melting point | also measured |
| --- | --- | --- | --- |
| Clc1ccc2c(Cl)ccc(Cl)c2c1Cl |  |  | log10 Koa: 8.4 |
| COC(=O)c1ccccc1C(=O)OC | 284 °C | 5.5 °C | log10 Koc (L/kg): 1.6; log10 vapour pressure (mmHg): -2.51; ready biodegradability: readily biodegradable |
| Fc1cc2c(cc1F)Oc1cc(Cl)c(Cl)cc1O2 |  | 223 °C | log10 vapour pressure (mmHg): -7.76 |
| O=C(F)c1ccccc1 | 154 °C | -28 °C |  |
| CCCC(=NOCC)C1=C(O)CC(C2CCCSC2)CC1=O (stereo unspecified) |  | 41 °C | log10 vapour pressure (mmHg): -7.12 |
| CCC(C)CC(C)CC (stereo unspecified) | 136 °C |  |  |
| O=C(c1ccccc1)c1ccc(O)cc1O |  | 144 °C | ready biodegradability: not readily biodegradable |
| CC=CCC(C)=O | 127 °C |  |  |
| CCCCCCCC/C=C/CCCCCCCC(=O)O |  | 29.2 °C |  |
| Cn1c(=O)n(C)c(=O)n(C)c1=O | 274 °C | 176 °C |  |
| O=Cc1cccnc1 |  |  | log10 Henry constant (atm·m³/mol): -6.82 |
| CCCCCC(=O)CC | 168 °C |  | log10 vapour pressure (mmHg): 0.301 |
| CCOC(C)=O | 77.1 °C | -83.6 °C | log10 Henry constant (atm·m³/mol): -3.87; log10 Koa: 2.7; log10 vapour pressure (mmHg): 1.97; ready biodegradability: readily biodegradable |
| CC#N | 81.6 °C | -43.8 °C | log10 Henry constant (atm·m³/mol): -4.46; log10 Koa: 2.31; log10 vapour pressure (mmHg): 1.95; ready biodegradability: readily biodegradable |
| CC(=O)OCC(C)OC(C)=O (stereo unspecified) | 190 °C |  |  |
| CCC(C(=O)O)C1(O)CCC(c2ccccc2)CC1 (stereo unspecified) |  | 157 °C |  |
| O=C(Cl)c1ccc2ccccc2c1 | 305 °C | 51 °C |  |
| O=C(O)CNCC(=O)O |  | 248 °C |  |
| CCC(N)C(=O)O (stereo unspecified) |  | 304 °C |  |
| CC(C)(C)N(NC(=O)c1ccccc1)C(=O)c1ccccc1 |  | 178 °C |  |
